# Active and inactive are the calls of the source.
# Tests used:
# [1] = target: Potassium voltage-gated channel subfamily KQT member 2 (Rattus norvegicus, UniProt O88943); test: retigabine-insensitive KCNQ2 potentiators, concentration-response, dose response, cell-based, retigabine-insensitive compounds (AID 2654); assay type: functional
# [2] = target: Mitochondrial peptide methionine sulfoxide reductase (Bos taurus, UniProt P54149); test: Absorbance-based biochemical high throughput dose response assay for activators of Methionine sulfoxide reductase A (MsrA).; assay type: functional
# Beta-galactosidase = Beta-galactosidase (Escherichia coli, UniProt Q8VNN2); test: beta-galactosidase enzyme inhibitors and activators, dose response, artefact control for CCR6 antagonist project, biochemical, E. coli enzyme, set 3 (AID 504712); assay type: functional
# Coagulation factor XII = target: T1, Coagulation factor XII (Homo sapiens, UniProt P00748); test: FXIIa inhibitor potency, concentration-response, biochemical (AID 716); assay type: functional
# T1 sequence (P00748 whole entry): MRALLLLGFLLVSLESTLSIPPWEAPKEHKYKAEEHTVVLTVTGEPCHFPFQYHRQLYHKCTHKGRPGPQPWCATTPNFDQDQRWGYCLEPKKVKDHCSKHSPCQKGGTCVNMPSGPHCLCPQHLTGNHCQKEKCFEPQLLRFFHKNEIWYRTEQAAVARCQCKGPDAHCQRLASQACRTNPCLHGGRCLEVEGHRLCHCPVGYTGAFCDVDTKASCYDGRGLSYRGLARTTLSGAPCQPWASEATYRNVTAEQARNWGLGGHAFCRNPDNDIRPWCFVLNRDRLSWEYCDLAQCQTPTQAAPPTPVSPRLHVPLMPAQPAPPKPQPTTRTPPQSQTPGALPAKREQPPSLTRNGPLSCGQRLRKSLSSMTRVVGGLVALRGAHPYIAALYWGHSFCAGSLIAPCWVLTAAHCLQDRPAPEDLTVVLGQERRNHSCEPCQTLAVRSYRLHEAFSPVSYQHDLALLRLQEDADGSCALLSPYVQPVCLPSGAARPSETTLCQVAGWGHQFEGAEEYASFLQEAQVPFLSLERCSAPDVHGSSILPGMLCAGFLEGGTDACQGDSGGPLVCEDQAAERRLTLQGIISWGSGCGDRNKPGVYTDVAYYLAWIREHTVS
# [3] = target: T2, Type-1 angiotensin II receptor (Homo sapiens, UniProt P30556); test: AT1 receptor agonists, dose response, selectivity assay for APJ receptor agonist project, cell-based, uHTS hits (AID 488865); assay type: functional;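 also: beta-arrestin recruitment to AT1 measured by enzyme fragment complementation luminescence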
# T2 sequence (P30556 whole entry): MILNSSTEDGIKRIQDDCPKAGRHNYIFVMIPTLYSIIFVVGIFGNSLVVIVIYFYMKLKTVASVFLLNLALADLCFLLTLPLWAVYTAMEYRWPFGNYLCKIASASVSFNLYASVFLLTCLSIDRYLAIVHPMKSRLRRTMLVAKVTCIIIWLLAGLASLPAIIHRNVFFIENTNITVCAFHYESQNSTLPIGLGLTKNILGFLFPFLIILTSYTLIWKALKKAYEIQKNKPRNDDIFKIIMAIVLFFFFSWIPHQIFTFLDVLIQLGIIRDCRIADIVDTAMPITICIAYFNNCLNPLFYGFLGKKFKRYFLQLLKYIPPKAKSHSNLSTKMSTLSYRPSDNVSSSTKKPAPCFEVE
# Vero [4] = test: cells; assay type: functional; settings: Chlorocebus sabaeus
# [5] = Luminescence Cell-Based Dose Retest to Confirm Inhibitors of Cancer Stem Cells. [Related pubchem assays (depositor defined):AID2717, AID2721]; assay type: functional; settings: Homo sapiens
# [6] = target: E3 ubiquitin-protein ligase Mdm2/Protein Mdm4 (Homo sapiens, UniProt O15151+Q00987); test: Mdm2-MdmX interaction inhibitors, dose response, luminescence detection (AID 504593); assay type: functional
# Vero [7] = test: cells; assay type: functional, cell-based; settings: Chlorocebus sabaeus
# [8] = target: Nucleotide-binding oligomerization domain-containing protein 2 (Homo sapiens, UniProt Q9HC29); test: NOD2 signaling inhibitors, cell-based, luminescence, uHTS, HEK293 (AID 1566); assay type: functional
# HEK293 [9] = test: cells; assay type: functional, cell-based; settings: Homo sapiens
# HEK293 [10] = test: NOD1 signaling inhibitors, primary screen, cell-based, luminescence, uHTS (AID 1578); assay type: functional; settings: Homo sapiens
# HEK293 [11] = test: cells; assay type: functional, cell-based; settings: Homo sapiens; remark: listed apart in the source
# [12] = target: Dual specificity tyrosine-phosphorylation-regulated kinase 1A (Rattus norvegicus, UniProt Q63470); assay type: biochemical, Homo sapiens
# HEK293 [13] = test: NOD2 signaling inhibitors in MDP-stimulated cells, cell-based, uHTS, luminescence (AID 2001); assay type: functional; settings: Homo sapiens
# HEK293 [14] = test: cells; assay type: functional, cell-based; settings: Homo sapiens; remark: listed apart in the source
# [15] = target: T3, Alkaline phosphatase, tissue-nonspecific isozyme (Homo sapiens, UniProt P05186); test: human TNAP enzyme inhibitors, SAR follow-up, biochemical, luminescent, dose response (AID 1056)
# T3 sequence (P05186 whole entry): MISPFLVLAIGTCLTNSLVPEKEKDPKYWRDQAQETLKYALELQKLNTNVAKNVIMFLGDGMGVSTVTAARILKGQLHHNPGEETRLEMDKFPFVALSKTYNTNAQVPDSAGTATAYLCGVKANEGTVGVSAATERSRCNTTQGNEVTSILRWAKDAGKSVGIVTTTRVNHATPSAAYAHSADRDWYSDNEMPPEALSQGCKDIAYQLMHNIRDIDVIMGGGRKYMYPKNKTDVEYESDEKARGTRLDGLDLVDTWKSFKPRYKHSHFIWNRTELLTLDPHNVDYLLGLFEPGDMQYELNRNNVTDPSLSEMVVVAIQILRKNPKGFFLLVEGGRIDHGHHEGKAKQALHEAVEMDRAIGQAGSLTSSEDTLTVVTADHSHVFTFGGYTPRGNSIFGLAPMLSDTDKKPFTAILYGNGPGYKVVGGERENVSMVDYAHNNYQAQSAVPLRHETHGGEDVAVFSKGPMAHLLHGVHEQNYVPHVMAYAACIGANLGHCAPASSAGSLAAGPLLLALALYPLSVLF
# [16] = target: Alkaline phosphatase, placental type (Homo sapiens, UniProt P05187); test: PLAP enzyme inhibitors, confirmation, biochemical, luminescence (AID 1512); assay type: functional
# [17] = target: T4, Endoribonuclease toxin MazF (Escherichia coli K-12, UniProt P0AE70); test: MazF toxin RNase activators, dose response, biochemical, fluorescence, single-stranded RNA substrate, uHTS hits (AID 588481); assay type: functional
# T4 sequence (P0AE70 whole entry): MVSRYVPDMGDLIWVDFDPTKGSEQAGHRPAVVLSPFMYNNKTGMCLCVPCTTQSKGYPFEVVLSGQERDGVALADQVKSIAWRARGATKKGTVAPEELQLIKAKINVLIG
# [18] = target: T4, Endoribonuclease toxin MazF; test: fluorescent RNA oligo signal without MazF, dose response, counter-screen for MazEF activator project, biochemical, fluorescence, single-stranded RNase substrate (AID 588502); assay type: functional
# Troponin, cardiac muscle = Troponin, cardiac muscle (Homo sapiens, UniProt P19429+P45379+P63316); test: Fluorescence-based biochemical high throughput dose response assay for activators of the calcium sensitivity of cardiac Regulated Thin Filaments (RTF). [Related pubchem assays (depositor defined):AID493008, AID493018, AID504382, AID504383]; assay type: protein-complex assay
# [19] = target: Voltage-dependent T-type calcium channel subunit alpha-1H (Homo sapiens, UniProt O95180); test: Cav3.2 T-type channel inhibitors, cell-based, synthetic library set 1, calcium flux (AID 493022); assay type: functional
# Hexokinase = Hexokinase (Trypanosoma brucei, UniProt Q38C41); test: Confirmation assay for inhibitors of Trypanosoma brucei hexokinase 1-Analogue-first series. [Related pubchem assays (depositor defined):AID1430, AID1632, AID2516, AID2560, AID2579, AID2600, AID449725, AID492951]; assay type: functional
# [20] = target: T5, Tyrosine-protein phosphatase non-receptor type 7 (Homo sapiens, UniProt P35236); test: redox-dependent HePTP inhibition, mechanism study, biochemical, fluorescence (AID 2068); assay type: functional
# T5 sequence (P35236 whole entry): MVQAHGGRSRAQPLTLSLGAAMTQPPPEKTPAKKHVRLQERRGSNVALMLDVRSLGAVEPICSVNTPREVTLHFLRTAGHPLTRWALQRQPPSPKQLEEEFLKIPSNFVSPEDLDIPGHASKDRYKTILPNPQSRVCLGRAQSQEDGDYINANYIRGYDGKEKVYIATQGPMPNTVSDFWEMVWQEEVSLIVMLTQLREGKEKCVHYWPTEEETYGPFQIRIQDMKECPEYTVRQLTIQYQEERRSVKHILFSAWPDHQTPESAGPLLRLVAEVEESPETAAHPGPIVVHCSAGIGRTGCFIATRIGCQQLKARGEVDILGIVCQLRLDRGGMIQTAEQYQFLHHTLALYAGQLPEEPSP
# [21] = target: T6, Tyrosine-protein phosphatase non-receptor type 22 (Homo sapiens, UniProt Q9Y2R2); test: LYP (PTPN22) phosphatase inhibitor potency, SAR follow-up, biochemical, pCAP fluorogenic substrate, fluorescence, set 3 (AID 449727); assay type: functional
# T6 sequence (Q9Y2R2 whole entry): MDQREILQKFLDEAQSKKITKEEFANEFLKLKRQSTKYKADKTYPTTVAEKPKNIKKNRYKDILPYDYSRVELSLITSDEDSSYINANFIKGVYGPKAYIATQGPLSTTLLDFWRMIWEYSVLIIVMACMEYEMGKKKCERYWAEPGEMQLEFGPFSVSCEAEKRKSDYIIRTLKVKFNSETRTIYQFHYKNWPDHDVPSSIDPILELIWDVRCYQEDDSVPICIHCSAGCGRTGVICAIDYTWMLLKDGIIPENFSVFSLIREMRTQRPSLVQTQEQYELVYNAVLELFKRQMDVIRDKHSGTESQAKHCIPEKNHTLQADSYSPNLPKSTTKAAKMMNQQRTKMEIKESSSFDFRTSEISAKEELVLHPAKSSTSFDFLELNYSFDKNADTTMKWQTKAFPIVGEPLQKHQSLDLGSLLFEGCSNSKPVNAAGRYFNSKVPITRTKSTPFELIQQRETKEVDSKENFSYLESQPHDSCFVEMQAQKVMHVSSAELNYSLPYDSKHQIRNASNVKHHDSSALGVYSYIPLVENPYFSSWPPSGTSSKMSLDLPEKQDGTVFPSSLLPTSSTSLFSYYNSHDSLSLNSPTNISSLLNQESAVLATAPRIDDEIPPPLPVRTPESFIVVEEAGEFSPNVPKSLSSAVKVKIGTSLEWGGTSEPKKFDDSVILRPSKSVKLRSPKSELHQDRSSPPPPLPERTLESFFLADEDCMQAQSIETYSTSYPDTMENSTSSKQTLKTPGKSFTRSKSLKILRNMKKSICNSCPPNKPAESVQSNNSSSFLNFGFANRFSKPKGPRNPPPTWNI
# [22] = target: T5, Tyrosine-protein phosphatase non-receptor type 7; test: HePTP (PTPN7) phosphatase inhibitor potency, SAR follow-up, biochemical, set 2 (AID 449736); assay type: functional
# [23] = target: T6, Tyrosine-protein phosphatase non-receptor type 22; test: SAR LYP1 Fluorescent Assay using OMFP substrate for In Vitro dose response studies - Set 3. [Related pubchem assays (depositor defined):AID1779, AID1784, AID2140, AID2686]; assay type: functional
# [24] = target: Dual specificity protein phosphatase 3 (Homo sapiens, UniProt P51452); test: SAR VHR1 Fluorescent Assay for In Vitro dose response studies Set 2. [Related pubchem assays (depositor defined):AID1654, AID1661, AID1878]; assay type: functional
# [25] = target: T7, Dual specificity protein phosphatase 6 (Rattus norvegicus, UniProt Q64346); assay type: functional;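 also: confirmatory in vitro dose-response testing of MKP-3 inhibition; recombinant His-tagged MKP-3 made in E. coli BL21 with OMFP substrate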
# T7 sequence (Q64346 whole entry): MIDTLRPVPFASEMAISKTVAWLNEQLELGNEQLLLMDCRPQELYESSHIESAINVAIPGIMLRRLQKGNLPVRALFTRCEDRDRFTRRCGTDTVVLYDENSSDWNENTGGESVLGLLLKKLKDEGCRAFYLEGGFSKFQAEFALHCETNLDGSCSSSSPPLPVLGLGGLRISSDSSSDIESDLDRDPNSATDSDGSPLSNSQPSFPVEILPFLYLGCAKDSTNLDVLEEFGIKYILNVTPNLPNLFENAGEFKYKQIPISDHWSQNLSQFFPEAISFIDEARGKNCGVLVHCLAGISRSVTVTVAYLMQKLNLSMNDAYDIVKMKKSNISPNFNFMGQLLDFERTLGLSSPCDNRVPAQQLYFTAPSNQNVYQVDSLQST
# [26] = target: Tyrosine-protein phosphatase non-receptor type 12 (Homo sapiens, UniProt Q05209); test: SAR Selectivity Analysis of small molecule inhibitors of PEST using pCAP in a fluorescence assay. [Related pubchem assays (depositor defined):AID1779, AID1784, AID2135]; assay type: functional
compound,measurement,setting,value
S=C(Nc1ccc(Nc2ccccc2)cc1)Nc1cccnc1,EC50,[1],11 µM (active)
CS(=O)(=O)c1cc([N+](=O)[O-])c(Sc2nc3ccccc3[nH]2)c([N+](=O)[O-])c1,EC50,[2],> 104 µM (inactive)
same,IC50,Beta-galactosidase,> 66.6 µM (inactive)
CCOC(=O)c1nnn(-c2nonc2N)c1CNc1ccc(C)c(Br)c1,IC50,Coagulation factor XII,> 50 µM (inactive)
C=CCSc1nc(=O)c(CC)c(O)n1C(C)CC (stereo not given),EC50,[3],> 100 µM (inactive)
O=C(/C=C/c1c(F)cccc1Cl)c1ccc(O)cc1,CC50,Vero [4],19.9 µM (active)
same,AC50,[5],6.85 µM (active)
same,IC50,[6],5.74 µM (active)
same,IC50,Vero [7],23.6 µM (active)
Clc1c(Cl)c(Cl)c2[nH]nnc2c1Cl,EC50,[8],3.2 µM (active)
same,IC50,HEK293 [9],> 20 µM (inactive)
same,EC50,HEK293 [10],2.24 µM (active)
same,IC50,HEK293 [11],13.9 µM (active)
same,AC50,[12],5.99 µM (active)
same,IC50,HEK293 [13],7.94 µM (active)
same,IC50,HEK293 [14],> 20 µM (inactive)
C=CCn1c(SCC(=O)c2ccc(O)c(O)c2)nnc1-c1ccc(Cl)cc1,IC50,[15],> 100 µM (inactive)
same,IC50,[16],11.8 µM (active)
O=[N+]([O-])c1ccc(NN=Cc2cccc3ccccc23)nc1,EC50,[17],> 99 µM (inactive)
same,EC50,[18],45.4 µM (inactive)
same,EC50,"Troponin, cardiac muscle",26.6 µM (inactive)
CC(Oc1ccccc1)C(=O)Nc1nnc(-c2ccc(F)c(F)c2)o1 (stereo not given),EC50,[19],10 µM (active)
COc1ccc(Nc2cc(Cl)ccc2C(=O)O)cc1,IC50,Hexokinase,> 25 µM (inactive)
CCOc1cc(/C=C2/S/C(=N/c3ccc4ccccc4c3)NC2=O)cc(Cl)c1OCC(=O)O,IC50,[20],0.373 µM (active)
same,IC50,[21],12.3 µM (active)
same,IC50,[22],0.466 µM (active)
same,IC50,[23],15.6 µM (active)
same,IC50,[24],0.48 µM (active)
same,IC50,[25],26.5 µM (active)
same,IC50,[26],4.76 µM (active)
